{
  "source": "patent US8969583B2",
  "about": "“3-phenyl-5-ureidoisothiazole-4-carboximide and 3-amino-5-phenylisothiazole derivatives as kinase inhibitors” (Allergan, Inc., priority 2011, dated 2015)",
  "key": {"[1]": {"target": "PDGFRβ (purified cytoplasmic domain PDGFR-b protein) (Homo sapiens (Human), UniProt P09619)", "sequence (P09619 554-1106)": "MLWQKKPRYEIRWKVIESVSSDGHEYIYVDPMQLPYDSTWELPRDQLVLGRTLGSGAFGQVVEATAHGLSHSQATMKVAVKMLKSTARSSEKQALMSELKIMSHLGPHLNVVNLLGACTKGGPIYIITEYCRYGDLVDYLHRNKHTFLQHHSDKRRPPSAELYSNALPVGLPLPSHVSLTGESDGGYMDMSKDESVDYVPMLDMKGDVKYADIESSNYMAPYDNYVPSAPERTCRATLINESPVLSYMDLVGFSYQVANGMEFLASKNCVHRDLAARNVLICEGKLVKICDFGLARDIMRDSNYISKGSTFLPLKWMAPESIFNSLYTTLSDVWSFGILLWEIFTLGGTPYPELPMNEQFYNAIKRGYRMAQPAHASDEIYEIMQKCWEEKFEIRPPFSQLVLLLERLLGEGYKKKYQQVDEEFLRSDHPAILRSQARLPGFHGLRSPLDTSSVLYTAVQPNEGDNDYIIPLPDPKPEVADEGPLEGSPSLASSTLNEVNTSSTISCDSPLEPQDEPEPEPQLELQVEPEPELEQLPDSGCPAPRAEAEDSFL", "test": "PDGFRβ Kinase Assay (biochemical, ELISA)", "conditions": "36 μM ATP, 60 minute incubation at 30° C.; read-out: PDGFRβ Enzyme Assay (IC50 nM)", "protocol": "(§1) Biochemical PDGFRβ kinase assays were performed in 96 well microtiter plates that were coated overnight with 75 μg of poly-Glu-Tyr (4:1) in 10 mM Phosphate Buffered Saline (PBS), pH 7.4. The coated plates were washed with 2 mls per well PBS+0.05% Tween-20 (PBS-T), blocked by incubation with PBS containing 1% BSA, then washed with 2 mls per well PBS-T prior to starting the reaction. Reactions were carried out in 100 μL reaction volumes containing 36 μM ATP in kinase buffer (50 mM Hepes buffer pH 7.4, 20 mM MgCl2, 0.1 mM MnCl2 and 0.2 mM Na3VO4). Test compounds were reconstituted in 100% DMSO and added to the reaction to give a final DMSO concentration of 5%. Reactions were initiated by the addition 20 ul per well of kinase buffer containing 200-300 ng purified cytoplasmic domain PDGFR-b protein (Millipore). Following a 60 minute incubation at 30° C., the reactions were washed 2 mls per well PBS-T. 100 μl of a monoclonal anti-phosphotyrosine antibody-peroxidase conjugate diluted 1:10,000 in PBS-T was added to the wells for 30 minutes. Following a 2 mls per well wash with PBS-Tween-20, 100 μl of O-Phenylenediamine Dihydrochloride in phosphate-citrate buffer, containing urea hydrogen peroxide, was added to the wells for 7-10 minutes as a colorimetric substrate for the peroxidase. The reaction was terminated by the addition of 100 μl of 2.5NH2SO4 to each well and read using a microplate ELISA reader set at 492 nm. IC50 values for compound inhibition were calculated directly from graphs of optical density (arbitrary units) versus compound concentration following subtraction of blank values."}, "[2]": {"target": "VEGFR2 (purified cytoplasmic domain KDR protein) (Homo sapiens (Human), UniProt P35968)", "sequence (P35968 786-1356)": "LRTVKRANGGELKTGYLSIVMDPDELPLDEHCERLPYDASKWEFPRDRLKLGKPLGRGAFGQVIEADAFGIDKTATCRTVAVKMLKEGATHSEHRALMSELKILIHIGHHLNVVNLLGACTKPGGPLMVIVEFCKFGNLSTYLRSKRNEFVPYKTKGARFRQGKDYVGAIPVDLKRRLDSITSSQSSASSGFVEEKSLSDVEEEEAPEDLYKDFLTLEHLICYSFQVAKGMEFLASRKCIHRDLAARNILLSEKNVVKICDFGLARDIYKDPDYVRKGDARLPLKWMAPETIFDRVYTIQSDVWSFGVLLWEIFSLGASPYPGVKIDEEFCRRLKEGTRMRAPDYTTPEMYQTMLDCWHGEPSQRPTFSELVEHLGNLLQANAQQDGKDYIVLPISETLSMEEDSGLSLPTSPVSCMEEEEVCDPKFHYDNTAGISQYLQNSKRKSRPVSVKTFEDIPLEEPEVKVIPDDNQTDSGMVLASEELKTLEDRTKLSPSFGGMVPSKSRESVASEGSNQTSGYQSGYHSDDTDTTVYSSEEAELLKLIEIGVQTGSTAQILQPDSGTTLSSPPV", "test": "VEGFR2 Kinase Assay (biochemical KDR kinase assay, ELISA)", "conditions": "2.7 μM ATP, 15 minute incubation at 30° C.; read-out: VEGFR2 Enzyme Assay (IC50 nM)", "protocol": "as §1, with “KDR” for “PDGFRβ”, “μg/well” for “μg”, “Reactions were carried out in 100 μL reaction volumes containing 36 μM ATP in kinase buffer (50 mM Hepes buffer pH 7.4, 20 mM MgCl2, 0.1 mM MnCl2 and 0.2 mM Na3VO4). Test compounds were reconstituted in 100% DMSO and added to the reaction to give a final DMSO concentration of 5%.” left out, “KDR” for “PDGFR-b”, “(BPS Bioscience, San Diego, Calif.).” for “(Millipore).”, “15” for “60”"}, "VEGFR1": {"target": "VEGFR1 (Homo sapiens (Human), UniProt P17948)", "sequence (P17948 27-1338, species assumed)": "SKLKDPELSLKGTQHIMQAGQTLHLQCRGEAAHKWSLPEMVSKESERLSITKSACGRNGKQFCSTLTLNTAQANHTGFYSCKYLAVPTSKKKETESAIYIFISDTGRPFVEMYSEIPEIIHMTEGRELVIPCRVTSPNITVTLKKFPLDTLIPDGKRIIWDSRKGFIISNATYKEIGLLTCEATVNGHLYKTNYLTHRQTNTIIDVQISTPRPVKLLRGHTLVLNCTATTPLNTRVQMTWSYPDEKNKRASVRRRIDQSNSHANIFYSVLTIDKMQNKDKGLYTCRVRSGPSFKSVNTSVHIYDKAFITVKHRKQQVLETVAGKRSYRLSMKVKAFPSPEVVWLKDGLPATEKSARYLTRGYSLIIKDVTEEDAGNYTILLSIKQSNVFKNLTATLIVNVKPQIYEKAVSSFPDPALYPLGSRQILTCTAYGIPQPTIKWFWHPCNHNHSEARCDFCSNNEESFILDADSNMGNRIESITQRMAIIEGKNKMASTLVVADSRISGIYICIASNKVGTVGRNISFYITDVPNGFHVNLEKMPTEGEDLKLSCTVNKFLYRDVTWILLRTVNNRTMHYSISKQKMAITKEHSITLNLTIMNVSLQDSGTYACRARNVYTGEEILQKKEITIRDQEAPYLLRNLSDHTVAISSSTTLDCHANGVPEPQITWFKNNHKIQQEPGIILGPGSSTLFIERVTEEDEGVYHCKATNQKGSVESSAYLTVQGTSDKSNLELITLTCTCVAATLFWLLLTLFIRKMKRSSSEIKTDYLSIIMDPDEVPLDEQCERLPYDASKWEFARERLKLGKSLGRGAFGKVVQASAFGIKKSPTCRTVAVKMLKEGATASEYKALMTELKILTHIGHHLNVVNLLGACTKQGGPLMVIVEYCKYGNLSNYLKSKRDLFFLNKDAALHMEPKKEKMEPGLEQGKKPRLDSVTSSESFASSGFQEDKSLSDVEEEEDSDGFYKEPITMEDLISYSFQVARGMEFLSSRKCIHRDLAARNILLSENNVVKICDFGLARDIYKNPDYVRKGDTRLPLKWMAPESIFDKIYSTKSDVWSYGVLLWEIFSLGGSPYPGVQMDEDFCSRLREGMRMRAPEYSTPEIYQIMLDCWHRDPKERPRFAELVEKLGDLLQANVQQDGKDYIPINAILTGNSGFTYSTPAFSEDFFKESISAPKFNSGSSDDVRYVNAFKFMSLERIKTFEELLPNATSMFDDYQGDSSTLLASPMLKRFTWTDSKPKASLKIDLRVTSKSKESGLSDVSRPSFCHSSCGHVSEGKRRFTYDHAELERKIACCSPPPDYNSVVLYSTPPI", "test": "VEGFR1 Enzyme Assay", "assay_type": "biochemical"}},
  "data": [
    {"smiles": "NC(=O)c1c(-c2ccc([N+](=O)[O-])cc2)nsc1NC(=O)NCCCN1CCOCC1", "note": "[Example 1, 5-({[(3-morpholin-4-ylpropyl)amino]carbonyl}amino)-3-(4-nitrophenyl)isothiazole-4-carboxamide]", "values": [
      {"measurement": "IC50", "setting": "[1]", "result": "> 10000", "unit": "nM"},
      {"measurement": "IC50", "setting": "[2]", "result": "> 10000", "unit": "nM"},
      {"measurement": "IC50", "setting": "VEGFR1", "result": "> 10000", "unit": "nM"}
    ]},
    {"smiles": "NC(=O)c1c(-c2ccc(N)cc2)nsc1NC(=O)NCCCN1CCOCC1", "note": "[Example 2, 3-(4-aminophenyl)-5-({[(3-morpholin-4-ylpropyl)amino]carbonyl}amino)isothiazole-4-carboxamide]", "values": [
      {"measurement": "IC50", "setting": "[1]", "result": "> 10000", "unit": "nM"}
    ]},
    {"smiles": "NC(=O)c1c(-c2ccc(NC(=O)Nc3ccccc3)cc2)nsc1NC(=O)NCCCN1CCOCC1", "note": "[Example 3, 3-{4-[(anilinocarbonyl)amino]phenyl}-5-({[(3-morpholin-4-ylpropyl)amino]carbonyl}amino)isothiazole-4-carboxamide]", "values": [
      {"measurement": "IC50", "setting": "[1]", "result": 21, "unit": "nM"}
    ]},
    {"smiles": "Cc1ccc(F)c(NC(=O)Nc2ccc(-c3nsc(NC(=O)NCCCN4CCOCC4)c3C(N)=O)cc2)c1", "note": "[Example 4, 3-[4-({[(2-fluoro-5-methylphenyl)amino]carbonyl}amino)phenyl]-5-({[(3-morpholin-4-ylpropyl)amino]carbonyl}amino)isothiazole-4-carboxamide]", "values": [
      {"measurement": "IC50", "setting": "[1]", "result": 47, "unit": "nM"}
    ]},
    {"smiles": "Cc1cccc(NC(=O)Nc2ccc(-c3nsc(NC(=O)NCCCN4CCOCC4)c3C(N)=O)cc2)c1", "note": "[Example 5, 3-[4-({[(3-methylphenyl)amino]carbonyl}amino)phenyl]-5-({[(3-morpholin-4-ylpropyl)amino]carbonyl}amino)isothiazole-4-carboxamide]", "values": [
      {"measurement": "IC50", "setting": "[1]", "result": 10, "unit": "nM"}
    ]},
    {"smiles": "NC(=O)c1c(-c2ccc(NC(=O)Nc3cc(C(F)(F)F)ccc3F)cc2)nsc1NC(=O)NCCCN1CCOCC1", "note": "[Example 6, 3-{4-[({[2-fluoro-5-(trifluoromethyl)phenyl]amino}carbonyl)amino]phenyl}-5-({[(3-morpholin-4-ylpropyl)amino]carbonyl}amino)isothiazole-4-carboxamide]", "values": [
      {"measurement": "IC50", "setting": "[1]", "result": 24, "unit": "nM"}
    ]},
    {"smiles": "Cc1ccc(NC(=O)Nc2ccc(-c3nsc(NC(=O)NCCCN4CCOCC4)c3C(N)=O)cc2)cc1", "note": "[Example 7, 3-[4-({[(4-methylphenyl)amino]carbonyl}amino)phenyl]-5-({[(3-morpholin-4-ylpropyl)amino]carbonyl}amino)isothiazole-4-carboxamide]", "values": [
      {"measurement": "IC50", "setting": "[1]", "result": 12, "unit": "nM"}
    ]},
    {"smiles": "COCCCNC(=O)Nc1snc(-c2ccc(N)cc2)c1C(N)=O", "note": "[Example 9, 3-(4-aminophenyl)-5-({[(3-methoxypropyl)amino]carbonyl}amino)isothiazole-4-carboxamide]", "values": [
      {"measurement": "IC50", "setting": "[1]", "result": "> 10000", "unit": "nM"},
      {"measurement": "IC50", "setting": "VEGFR1", "result": "> 1000", "unit": "nM"}
    ]},
    {"smiles": "NC(=O)c1c(-c2ccc(NC(=O)c3cccc(C(F)(F)F)c3)cc2)nsc1NC(=O)NCCCN1CCOCC1", "note": "[Example 11, 5-({[(3-morpholin-4-ylpropyl)amino]carbonyl}amino)-3-(4-{[3-(trifluoromethyl)benzoyl]amino}phenyl)isothiazole-4-carboxamide]", "values": [
      {"measurement": "IC50", "setting": "[1]", "result": "> 1000", "unit": "nM"},
      {"measurement": "IC50", "setting": "VEGFR1", "result": "> 1000", "unit": "nM"}
    ]},
    {"smiles": "NC(=O)c1c(-c2ccc([N+](=O)[O-])cc2)nsc1NC(=O)N1CCCC1=O", "note": "[Example 45, 3-(4-Nitro-phenyl)-5-[(2-oxo-pyrrolidine-1-carbonyl)-amino]-isothiazole-4-carboxylic acid amide]", "values": [
      {"measurement": "IC50", "setting": "[2]", "result": "> 10000", "unit": "nM"}
    ]},
    {"smiles": "Cc1ccc(NC(=O)Nc2ccc(-c3nsc(NC(=O)NCCCC(=O)O)c3C(N)=O)cc2)cc1", "note": "[Example 48, 4-{[({4-(Aminocarbonyl)-3-[4-({[(4-methylphenyl)amino]carbonyl}amino)phenyl]isothiazol-5-yl}amino)carbonyl]amino}butanoic acid]", "values": [
      {"measurement": "IC50", "setting": "[1]", "result": 10, "unit": "nM"}
    ]},
    {"smiles": "Cc1ccc(NC(=O)Nc2ccc(-c3nsc(NC(=O)NCCCO)c3C(N)=O)cc2)cc1", "note": "[Example 56, 5-({[(3-Hydroxypropyl)amino]carbonyl}amino)-3-[4-({[(4-methylphenyl)amino]carbonyl}amino)phenyl]isothiazole-4-carboxamide]", "values": [
      {"measurement": "IC50", "setting": "[1]", "result": 13, "unit": "nM"}
    ]},
    {"smiles": "NC(=O)c1c(-c2ccc(N)cc2)nsc1N", "note": "[Example 58, 5-Amino-3-(4-aminophenyl)isothiazole-4-carboxamide]", "values": [
      {"measurement": "IC50", "setting": "[2]", "result": "> 10000", "unit": "nM"}
    ]},
    {"smiles": "Cc1ccc(NC(=O)Nc2ccc(-c3nsc(N)c3C(N)=O)cc2)cc1", "note": "[Example 59, 5-Amino-3-[4-({[(4-methylphenyl)amino]carbonyl}amino)phenyl]isothiazole-4-carboxamide]", "values": [
      {"measurement": "IC50", "setting": "[1]", "result": 60, "unit": "nM"}
    ]},
    {"smiles": "Cc1ccc(F)c(NC(=O)Nc2ccc(-c3nsc(N)c3C(N)=O)cc2)c1", "note": "[Example 60, 5-Amino-3-[4-({[(2-fluoro-5-methylphenyl)amino]carbonyl}amino)phenyl]isothiazole-4-carboxamide]", "values": [
      {"measurement": "IC50", "setting": "[1]", "result": 70, "unit": "nM"}
    ]},
    {"smiles": "NC(=O)c1c(-c2cccc([N+](=O)[O-])c2)nsc1N", "note": "[Example 61, 5-Amino-3-(3-nitrophenyl)isothiazole-4-carboxamide]", "values": [
      {"measurement": "IC50", "setting": "[2]", "result": "> 10000", "unit": "nM"}
    ]},
    {"smiles": "NC(=O)c1c(-c2cccc(N)c2)nsc1N", "note": "[Example 62, 5-Amino-3-(3-aminophenyl)isothiazole-4-carboxamide]", "values": [
      {"measurement": "IC50", "setting": "[2]", "result": "> 10000", "unit": "nM"}
    ]},
    {"smiles": "NC(=O)c1c(-c2cccc(NC(=O)c3cccc(C(F)(F)F)c3)c2)nsc1N", "note": "[Example 64, 5-Amino-3-(3-{[3-(trifluoromethyl)benzoyl]amino}phenyl)isothiazole-4-carboxamide]", "values": [
      {"measurement": "IC50", "setting": "[1]", "result": 844, "unit": "nM"}
    ]},
    {"smiles": "NC(=O)c1c(-c2cccc(NC(=O)Nc3ccccc3)c2)nsc1N", "note": "[Example 65, 5-Amino-3-{3-[(anilinocarbonyl)amino]phenyl}isothiazole-4-carboxamide]", "values": [
      {"measurement": "IC50", "setting": "[1]", "result": "> 1000", "unit": "nM"},
      {"measurement": "IC50", "setting": "[2]", "result": "> 10000", "unit": "nM"}
    ]},
    {"smiles": "NC(=O)c1c(-c2ccc(N)cc2)nsc1NC(=O)NCCCN1CCCC1", "note": "[Example 67, 3-(4-Aminophenyl)-5-({[(3-pyrrolidin-1-ylpropyl)amino]carbonyl}amino)isothiazole-4-carboxamide]", "values": [
      {"measurement": "IC50", "setting": "[2]", "result": "> 1000", "unit": "nM"}
    ]},
    {"smiles": "Cc1ccc(NC(=O)Nc2ccc(-c3nsc(NC(=O)NCCCN4CCCC4)c3C(N)=O)cc2)cc1", "note": "[Example 68, 3-[4-({[(4-Methylphenyl)amino]carbonyl}amino)phenyl]-5-({[(3-pyrrolidin-1-ylpropyl)amino]carbonyl}amino)isothiazole-4-carboxamide]", "values": [
      {"measurement": "IC50", "setting": "[1]", "result": 12, "unit": "nM"}
    ]},
    {"smiles": "Cc1ccc(F)c(NC(=O)Nc2ccc(-c3snc(N)c3C(N)=O)cc2)c1", "note": "[Example 69, 3-Amino-5-[4-({[(2-fluoro-5-methylphenyl)amino]carbonyl}amino)phenyl]isothiazole-4-carboxamide]", "values": [
      {"measurement": "IC50", "setting": "[1]", "result": 48, "unit": "nM"}
    ]},
    {"smiles": "Cc1ccc(F)c(NC(=O)Nc2ccc(-c3snc(NCCCN4CCOCC4)c3C(N)=O)cc2)c1", "note": "[Example 70, 5-[4-({[(2-Fluoro-5-methylphenyl)amino]carbonyl}amino)phenyl]-3-[(3-morpholin-4-ylpropyl)amino]isothiazole-4-carboxamide]", "values": [
      {"measurement": "IC50", "setting": "[1]", "result": 70, "unit": "nM"}
    ]}
  ]
}
